Measured values reported in ChEMBL document CHEMBL1142764, “Anti-HIV properties of cationic fullerene derivatives” (Bioorg Med Chem Lett, 2005).

Experiments:
[1] = test system: Human immunodeficiency virus 1; assay: Effective concentration against HIV-1; type: functional, organism-based
[2] = test system: Human immunodeficiency virus 2; assay: Effective concentration against HIV-2; type: functional, organism-based
CCRF-CEM = assay: Cytostatic activity against CEM cell culture; type: functional; conditions: Homo sapiens

Row | EC50 [1] | EC50 [2] | Compound | CC50 (CCRF-CEM)
1 | 1080 nM | 2500 nM | CC12C[N+](C)(C)CC34C5c6cc7c8c9c6-c6c5c5c%10c%11c6C6c%12c%13c%14c%15c%16c%17c%18c(c%19c%20c%21c%22c%23c%24c(c%10c%10c(c%12%11)c%14c%11c%10c%24c%22c%10c%20c%18c%15c%10%11)C5C35C=%23CC%215C%1914)C(C%17=C8C1(C[N+](C)(C)CC%16%131)C96)C72 (configuration not stated) | 12500 nM
2 | 210 nM | 200 nM | CC1C2c3cc4/c5c6c7c8c9c%10c6c4c4c3C3=C6c%11c%12c%13c%14c%15c(c9c9c%16c8c(c8/c(c%17c%18c%19c(c(c%11c%11c%19c%19c%17c8c%16c(c%149)c%19c%13%11)C62)C1C%181C[N+](C)(C)C1)=C\C/C=5)C7)C%10C4C31C[N+](C)(C)CC%12%151 (configuration not stated) | 2930 nM
3 | > 25000 nM | > 25000 nM | C[N+]1(C)CC23C4=C5c6c7c8c9c%10c%11c%12c%13c%14c%15c%16c%17c%18c%19c%20c%21c%22c%23c%24c(c6C6%25C[N+](C)(C)CC%236C%21C6C%21=C%20C%18C%18C%20=C%21C(C4c4c%20c(c-%13c(c42)C%12C9C73C1)C%18C%14%17)C6C5%25)c8c1c%10c(c%11%15)c2c%16c%19c%22c2c%241 (configuration not stated) | > 125000 nM
4 | 350 nM | 700 nM | CC1C2c3cc4c5c6c3C3=C7c8c9c%10c%11c%12c%13c%14c%15c(c-5c5c%16c%15c%15c%17c%18c%19c%20c%21c%22c(c(c8c8c%22c%22c%20c%18c%18c%15c%14c%11c%18c%22c%108)C72)C1C%211CC=%19C1(C%16%17)C1C[N+](C)(C)CC451)C%13C6C31C[N+](C)(C)CC9%121 (configuration not stated) | 9040 nM
